Laboratory results reported in US11098010B2 (priority 2017, dated 2021).
Structures can show the parent of a compound that is named as a salt.

test system: HBV rcDNA in HepDE19 cells; experiment: HepDE19 assay with bDNA quantitation of HBV rcDNA; format: cell-based, hepatitis B virus (HBV); conditions: HepDE19 cells, inhibition of rcDNA formation, 7 day incubation, top concentration 25 μM; read-out: DE-19 bDNA EC50
Description: HepDE19 Assay with bDNA Quantitation of HBV rcDNA:
HepDE19 cell culture system is a HepG2 (human hepatocarcinoma) derived cell line that supports HBV DNA replication and cccDNA formation in a tetracycline (Tet)-regulated manner and produces HBV rcDNA and a detectable reporter molecule dependent on the production and maintenance of cccDNA (Guo, et al., 2007, J. Virol. 81:12472-12484).
HepDE19 (50,000 cells/well) were plated in 96-well collagen-coated tissue-culture treated microtiter plates in DMEM/F12 medium supplemented with 10% fetal bovine serum, 1% penicillin-streptomycin and 1 μg/mL tetracycline and incubated in a humidified incubator at 37° C. and 5% CO2 overnight. Next day, the cells were switched to fresh medium without tetracycline and incubated for 4 hours at 37° C. and 5% CO2. The cells were treated with fresh Tet-free medium with compounds at concentrations starting at 25 μM and a serial, ½ log, 8-point, titration series in duplicate. The final DMSO concentration in the assay was 0.5%. The plates were incubated for 7 days in a humidified incubator at 37° C. and 5% CO2. Following a 7 day-incubation, the level of rcDNA present in the inhibitor-treated wells was measured using a Quantigene 2.0 bDNA assay kit (Affymetrix, Santa Clara, Calif.) with HBV specific custom probe set and manufacturers instructions. Concurrently, the effect of compounds on cell viability was assessed using replicate plates, plated at a density of 5,000 cells/well and incubated for 4 days, to determine the ATP content as a measure of cell viability using the cell-titer glo reagent (CTG; Promega Corporation, Madison, Wis.) as per manufacturer's instructions. The plates were read using a Victor luminescence plate reader (PerkinElmer Model 1420 Multilabel counter) and the relative luminescence units (RLU) data generated from each well was calculated as % inhibition of the untreated control wells and analyzed using XL-Fit module in Microsoft Excel to determine EC50 and EC90 (bDNA) and CC50 (CTG) values using a 4-parameter curve fitting algorithm.
Representative compounds of the invention were tested for their abilities to inhibit formation of relaxed circular DNA (rcDNA) in a HepDE19 assay, as described elsewhere herein.

SMILES | EC50 [µM]
COC(=O)NC1CC(C)(C)c2c(C(=O)Nc3ccc(F)c(Cl)c3)ccc(F)c21 (stereo not drawn) [Compound 282, O-methyl, N-(4-((3-chloro-4-fluorophenyl)carbamoyl)-7-fluoro-3,3-dimethyl-2,3-dihydro-1H-inden-1-yl) carbamate] | 15
O=C(NC1CCc2c(C(=O)Nc3ccc(F)c(Cl)c3)ccnc21)OCc1ccccn1 (stereo not drawn) [Compound 265, O-pyridin-2-ylmethyl, N-(4-((3-chloro-4-fluorophenyl)carbamoyl)-6,7-dihydro-5H-cyclopenta[b]pyridin-7-yl) carbamate] | 0.54
O=C1NC(=O)C2(CCc3c(C(=O)Nc4ccc(F)c(Cl)c4)ccc(F)c32)N1 (single isomer, unassigned) [Compound 257, N-(3-chloro-4-fluoro-phenyl)-7′-fluoro-2,5-dioxo-spiro[imidazolidine-4,1′-indane]-4′-carboxamide] | > 25

same assay, conditions: Hepatitis B virus, HepDE19, 168 h, HepDE19 cells, inhibition of rcDNA formation, 7 day incubation, top concentration 25 μM; read-out: DE-19 bDNA EC50

SMILES | EC50 [µM]
COCCOC(=O)N[C@H]1CCc2c(C(=O)Nc3ccc(F)c(Cl)c3)ccc(F)c21 [Compound 111, O-2-Methoxyethyl, N—(S)-(4-((3-chloro-4-fluorophenyl)carbamoyl)-7-fluoro-2,3-dihydro-1H-inden-1-yl) carbamate] | 0.15
O=C1C[C@@H](OC(=O)N[C@H]2CCc3c(C(=O)Nc4ccc(F)c(Cl)c4)ccc(F)c32)CN1 [Compound 72, O—(R)-5-Oxopyrrolidin-3-yl, N—((S)-4-((3-chloro-4-fluorophenyl)carbamoyl)-7-fluoro-2,3-dihydro-1H-inden-1-yl) carbamate] | 0.24
CN1Cc2c(C(=O)Nc3ccc(F)c(Cl)c3)cccc2S1(=O)=O [Compound 277, N-(3-Chloro-4-fluorophenyl)-2-methyl-2,3-dihydrobenzo[d]isothiazole-4-carboxamide 1,1-dioxide] | 2.2
CNC(=O)NC1c2c(F)ccc(C(=O)Nc3ccc(F)c(Cl)c3)c2CC1(F)F (single isomer, unassigned) [Compound 211, N-(3-chloro-4-fluorophenyl)-2,2,7-trifluoro-1-(3-methylureido)-2,3-dihydro-1H-indene-4-carboxamide] | 6.9
O=C(Nc1ccc(F)c(Cl)c1)c1ccc(F)c2c1CCC2=O [Compound 251, N-(3-Chloro-4-fluorophenyl)-7-fluoro-1-oxo-2,3-dihydro-1H-indene-4-carboxamide] | 0.55
O=C(N[C@H]1CCc2c(C(=O)Nc3ccc(F)c(Cl)c3)ccc(F)c21)OCCO [Compound 141, O-2-Hydroxyethyl, N—(S)-(4-((3-chloro-4-fluorophenyl)carbamoyl)-7-fluoro-2,3-dihydro-1H-inden-1-yl) carbamate] | 0.18
O=C(Nc1ccc(F)c(Cl)c1)c1ccc(F)c2c1CC[C@@H]2NS(=O)(=O)N1CCOCC1 [Compound 228, (S)—N-(3-Chloro-4-fluorophenyl)-7-fluoro-1-(morpholine-4-sulfonamido)-2,3-dihydro-1H-indene-4-carboxamide] | 0.2
O=C1CC[C@@H](OC(=O)N[C@H]2CCc3c(C(=O)Nc4ccc(F)c(Cl)c4)ccc(F)c32)CN1 [Compound 199, O—(R)-6-Oxopiperidin-3-yl, N—((S)-4-((3-chloro-4-fluorophenyl)carbamoyl)-7-fluoro-2,3-dihydro-1H-inden-1-yl)carbamate] | 0.25
N[C@H]1CCc2c(C(=O)Nc3ccc(F)c(Cl)c3)ccc(F)c21 [Compound 13, (S)-1-Amino-N-(3-chloro-4-fluorophenyl)-7-fluoro-2,3-dihydro-1H-indene-4-carboxamide] | > 25
Cn1ccc(CCC(=O)N[C@H]2CCc3c(C(=O)Nc4ccc(F)c(Cl)c4)ccc(F)c32)n1 [Compound 171, (S)—N-(3-Chloro-4-fluorophenyl)-7-fluoro-1-(3-(1-methyl-1H-pyrazol-3-yl)propanamido)-2,3-dihydro-1H-indene-4-carboxamide] | 0.13
O=C(N[C@H]1CCc2c(C(=O)Nc3ccc(F)c(Cl)c3)ccc(F)c21)OCc1cscn1 [Compound 124, O-Thiazol-4-ylmethyl, N—(S)-(4-((3-chloro-4-fluorophenyl)carbamoyl)-7-fluoro-2,3-dihydro-1H-inden-1-yl) carbamate] | 0.06
CNC(=O)NC1c2c(F)ccc(C(=O)Nc3ccc(F)c(F)c3)c2CC1OC (stereo not drawn) [Compound 245, N-(3,4-difluorophenyl)-7-fluoro-2-methoxy-1-(3-methylureido)-2,3-dihydro-1H-indene-4-carboxamide] | 4.9
O=C(N[C@H]1CCc2c(C(=O)Nc3ccc(F)c(Cl)c3)ccc(F)c21)OCc1nc[nH]n1 [Compound 195, O-(1H-1,2,4-Triazol-3-yl)methyl, N—(S)-(4-((3-chloro-4-fluorophenyl)carbamoyl)-7-fluoro-2,3-dihydro-1H-inden-1-yl) carbamate] | 0.1
O=C(N[C@H]1CCc2c(C(=O)Nc3ccc(F)c(Cl)c3)ccc(F)c21)OCc1ccccn1 [Compound 32, O-Pyridin-2-ylmethyl, N—(S)-(4-((3-chloro-4-fluorophenyl)carbamoyl)-7-fluoro-2,3-dihydro-1H-inden-1-yl) carbamate] | 0.11

same assay, conditions: Hepatitis B virus, HepDE19, 168 h, read-out: DE-19 bDNA EC50 (μM), HepDE19 cells, inhibition of rcDNA formation, 7 day incubation, top concentration 25 μM

SMILES | EC50 [µM]
O=C(N[C@H]1CCc2c(C(=O)Nc3ccc(F)c(Cl)c3)ccc(F)c21)OC[C@H]1COCCN1 [Compound 139, O—((R)-Morpholin-3-yl)methyl, N—((S)-4-((3-chloro-4-fluorophenyl)carbamoyl)-7-fluoro-2,3-dihydro-1H-inden-1-yl) carbamate Hydrochloride] | 0.62
O=C(N[C@H]1CCc2c(C(=O)Nc3ccc(F)c(Cl)c3)ccc(F)c21)OCC1CC(F)(F)CN1 (stereo partly drawn) [Compound 56, O-(4,4-Difluoropyrrolidin-2-yl)methyl, N—((S)-4-((3-chloro-4-fluorophenyl)carbamoyl)-7-fluoro-2,3-dihydro-1H-inden-1-yl) carbamate Hydrochloride] | 0.5
O=C(Nc1ccc(F)c(Cl)c1)c1ccc(F)c2c1CC[C@@H]2Nc1ncccn1 [Compound 45, (S)—N-(3-chloro-4-fluorophenyl)-7-fluoro-1-(pyrimidin-2-ylamino)-2,3-dihydro-1H-indene-4-carboxamide] | 0.25
O=C(N[C@H]1CCc2c(C(=O)Nc3ccc(F)c(Cl)c3)ccc(F)c21)OCc1cccc(N2CCOCC2)n1 [Compound 42, O-(6-Morpholinopyridin-2-yl)methyl, N—(S)-(4-((3-chloro-4-fluorophenyl)carbamoyl)-7-fluoro-2,3-dihydro-1H-inden-1-yl) carbamate] | 0.27
O=C(N[C@H]1CCc2c(C(=O)Nc3ccc(F)c(Cl)c3)ccc(F)c21)OCCN1CCCC1=O [Compound 14, O-2-(2-Oxopyrrolidin-1-yl)ethyl, N—(S)-(4-((3-chloro-4-fluorophenyl)carbamoyl)-7-fluoro-2,3-dihydro-1H-inden-1-yl) carbamate] | 0.45
COC(=O)N[C@H]1CCc2c(C(=O)Nc3ccc(F)c(C)c3)ccc(F)c21 [Compound 11, O-Methyl, N—(S)-(7-fluoro-4-((4-fluoro-3-methylphenyl)carbamoyl)-2,3-dihydro-1H-inden-1-yl) carbamate] | 0.21

same assay, conditions: read-out: DE-19 bDNA EC50; HepDE19 cells, inhibition of rcDNA formation, 7 day incubation, top concentration 25 μM; hydrochloride

SMILES | EC50 [µM]
O=C(NC1CSc2c(C(=O)Nc3ccc(F)c(F)c3)cccc21)OCc1ccccn1 (single isomer, unassigned) [Compound 34, O-Pyridin-2-ylmethyl, N-(7-((3,4-difluorophenyl)carbamoyl)-2,3-dihydrobenzo[b]thiophen-3-yl)carbamate hydrochloride] | > 25
